{"source": "patent EP4328302A1", "about": "“SYNTHESIS OF […] P450 MONO[…] A […]-FREE SYSTEM […] VESICLES” (Fraunhofer-Gesellschaft zur Förderung der angewandten …, priority 2022, dated 2024)", "target": "T1, CYP3A4 (Homo sapiens, UniProt P08684)", "T1 construct": "made in house; host or cells: cell-free protein synthesis in translationally active lysates of CHO-K1 or modified CHO (CHO-CPR, CHO-CPR/CYP3A4) cells; plasmid template from Biocat GmbH", "T1 sequence (P08684 whole entry)": "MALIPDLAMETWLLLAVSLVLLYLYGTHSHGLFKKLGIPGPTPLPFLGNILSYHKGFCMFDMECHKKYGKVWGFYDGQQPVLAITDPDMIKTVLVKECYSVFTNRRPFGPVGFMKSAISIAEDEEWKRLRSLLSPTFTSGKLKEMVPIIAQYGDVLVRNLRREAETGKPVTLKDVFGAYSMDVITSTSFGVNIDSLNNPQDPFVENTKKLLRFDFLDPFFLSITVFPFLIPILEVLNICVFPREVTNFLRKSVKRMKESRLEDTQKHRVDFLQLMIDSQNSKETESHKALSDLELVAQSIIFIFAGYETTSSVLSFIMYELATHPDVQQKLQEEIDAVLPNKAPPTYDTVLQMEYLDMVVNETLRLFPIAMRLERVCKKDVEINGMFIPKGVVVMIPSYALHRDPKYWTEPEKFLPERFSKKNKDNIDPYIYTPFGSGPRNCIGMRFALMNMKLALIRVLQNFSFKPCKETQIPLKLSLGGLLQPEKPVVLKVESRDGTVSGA", "test": "Luciferase based CYP3A4 activity assay (P450-Glo, Luciferin-IPA turnover) in the microsomal fraction after cell-free synthesis with heme supplementation", "type": "biochemical", "experimental": "Synthesis of proteins in translationally active lysates derived from cultured Chinese hamster ovary (CHO) cells and its modified variants CHO-CPR and CHO-CPR/CYP3A4 cells, was performed in batch based systems as previously described (Thoring et al. 2016). Accordingly designed plasmids, suitable for CFPS, coding for the CYP of interest, were applied as template. T7 RNA Polymerase, amino acids, an energy regeneration system and other supplements were added to the translationally active lysates with the additional supplementation of 5 µM heme (porcine) (Alfa Aesar Haverhill, Massachusetts, USA) to the reaction and a reaction temperature of 24 °C despite elsewise noted. For the isolation of the microsomes the translation mixture (TM) was centrifuged at 16.000 x g for 10 minutes at 4 °C. […]\nFor CYP activity measurement,\"P450-Glo™ Assays\" (Promega, Madison, Wisconsin, USA) were used. CYP1A2 activity was detected by Luciferase-ME turnover (V8772), CYP2B6 was detected by Luciferin-2B6 turnover (V8321) and CYP3A4 was detected by Luciferin-IPA turnover (V9001). […] For response condition adjustments, CYP activities were usually expressed as percentage of the highest CYP activity during the assay. For CYP activity quantification, a standard curve was prepared using beetles luciferin (Promega, Madison, Wisconsin, USA) according to the attached protocol. […]", "data": [{"smiles": "C=CC1=C(C)c2cc3[n-]c(cc4[n-]c(cc5nc(cc1n2)C(C)=C5C=C)c(C)c4CCC(=O)O)c(CCC(=O)O)c3C.[Fe+2]", "note": "[heme]", "values": [{"measurement": "CYP3A4 activity compared to the control without supplementation", "setting": "heme concentration of 5 µM in the cell-free reaction, microsomal fraction (MF), triplicate analysis, highest CYP3A4 activity", "result": "more than twofold higher"}, {"measurement": "reduced activity compared to the 5 µM heme supplemented sample", "setting": "supplementation of higher concentrations of heme (above 5 µM) to the cell-free reaction, CYP3A4 activity in MF", "result": 60, "unit": "%"}]}]}
